Assay results reported in patent US20250297292A1, “ENZYMATIC REDUCTION OR REDUCTIVE AMINATION OF ARYL AND HETEROCYCLIC CARBOXYLIC ACIDS AND ALDEHYDES” (University of Delaware Newark, priority 2022, published 2025).

Key:
srCAR = experiment: Time course of enzymatic reduction of PET-derived carboxylates by srCAR with co-factor regeneration; assay type: biochemical, Segniliparus rotundus; details: 5 mM substrate, 3-enzyme NADPH and ATP regeneration system, N=3
Description: Endpoint in vitro assays showing the conversion of 5 mM TPA to TPAL after 24 h, with and without co-factor regenerating enzymes. […] Time course analysis of the enzymatic reduction of (i) 5 mM TPA, (ii) 5 mM 4FBA, (iii) 5 mM mmTPA and (iv) 5 mM MHET by CAR (FIG. 10B) All experiments included a 3-enzyme NADPH and ATP regeneration system. […] Sample size is N=3 and all data are shown as the mean±standard deviation. Error bars for certain points of the bioconversion of mmTPA to mm4FBA are smaller than the height of the symbol.

cvTA = experiment: Endpoint bioconversion of PET-derived aldehydes to amines by cvTA; assay type: biochemical, Chromobacterium violaceum; details: 10 mM substrate, 1.5 μM cvTA, 40 mM iPr-NH2, 24 h at 30° C., N=3
Description: cvTA reactions for the conversion of 4FBA and TPAL to their corresponding amine (FIG. 8A) Endpoint bioconversion of 10 mM 4FBA to pAMBA (FIG. 8B) and 10 mM TPAL to pXYL (FIG. 8C) by 1.5 μM cvTA in 100 mM HEPES pH 7.5, 400 μM PLP with 40 mM iPr-NH2 as the amine donor. […] Sample size is N=3 and all data are shown as the mean±standard deviation.

[1] = target: lipase from Candida antarctica (CALB) (Moesziomyces antarcticus, UniProt P41365); experiment: De-esterification of PET-derived ester aldehydes by lipase CALB; assay type: biochemical; details: 1 mM substrate, 24 h, 30° C.
lipase from Candida antarctica (CALB), sequence (P41365 26-342): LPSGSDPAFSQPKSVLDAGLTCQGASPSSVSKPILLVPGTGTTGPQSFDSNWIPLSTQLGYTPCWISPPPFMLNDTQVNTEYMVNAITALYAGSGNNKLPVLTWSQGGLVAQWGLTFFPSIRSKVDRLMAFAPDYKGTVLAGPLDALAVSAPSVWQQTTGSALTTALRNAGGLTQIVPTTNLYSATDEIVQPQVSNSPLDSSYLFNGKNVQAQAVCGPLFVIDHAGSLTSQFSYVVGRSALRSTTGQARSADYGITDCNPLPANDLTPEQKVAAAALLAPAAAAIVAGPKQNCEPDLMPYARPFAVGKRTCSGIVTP

[2] = test system: CAR from Segniliparus rotundus (srCAR); experiment: CAR initial rate by NADPH oxidation (srCAR on PET-derived carboxylates); assay type: biochemical; details: average activity of srCAR on TPA, triplicate average; used to normalize the heatmap
From the text: Using a sequence similarity network, CARs were sampled across distinct protein clusters to probe for activity on TPA. Of 22 cloned CARs, 17 expressed, with 9 of those CARs being unreported in literature (FIG. 9A). Anti-His6 Western blot of cell lysate from E. coli BL21 (DE3) harboring different CARs is shown by phylogeny (FIG. 9B). CARS were expressed under optimized conditions. The Western blot is comprised of two separate blots, which are delineated by the dashed lines and contain their own protein ladders. The first lane of the Western blot is a control lane consisting of lysate from E. coli BL21 (DE3) with no CAR plasmid. A band corresponding to the putative CAR from Streptomyces noursei was not detected during Western blot analysis but was confirmed in a separate experiment. The substrate specificity of CAR was evaluated on TPA, 4FBA, MHET and mmTPA, which are carboxylates related to PET depolymerization (FIG. 9C). In addition, pAMBA was tested, as it is a potential reaction intermediate in our proposed multienzyme cascade for the formation of amines. Under mild aqueous conditions, the conversion of CAR was tracked on TPA, 4FBA, MHET, mmTPA, pAMBA and the model aromatic acid, benzoic acid (FIG. 9D). Here, the oxidation of NADPH is measured as a proxy to aldehyde formation, as depletion of NADPH is linked to the consumption of substrate. […]

Row | Structure (SMILES) | over-reduction of aldehyde product to alcohol during reduction (srCAR) | endpoint bioconversion of aldehyde to amine (cvTA) | de-esterification by CALB [1] | also measured
1 | O=Cc1ccc(C(=O)O)cc1 [4FBA, 4-formylbenzoic acid] | over-reduction of aldehydes to alcohols | proceeds to completion |  | 
2 | O=Cc1ccc(C(=O)OCCO)cc1 [MHE-4FBA, 2-hydroxyethyl 4-formylbenzoate] |  |  | completely de-esterified | 
3 | O=C(O)c1ccc(C(=O)O)cc1 [TPA, terephthalic acid] | over-reduction of aldehydes to alcohols |  |  | average initial rate (oxidation of NADPH as proxy to aldehyde formation) [2]: 4.80 mM NADPHox·h^−1·μMCAR^−1
4 | O=Cc1ccc(C=O)cc1 [TPAL, terephthalaldehyde] |  | proceeds to completion |  | 
5 | COC(=O)c1ccc(C=O)cc1 [mm4FBA, methyl 4-formylbenzoate] |  |  | completely de-esterified | 
6 | COC(=O)c1ccc(C(=O)O)cc1 [mmTPA, monomethyl terephthalate] | decline in concentration over time to the purported alcohol product |  |  | 
